Laboratory results taken from patent publication US8455226B2, “Method for producing metal nanoparticles” (Janssen Pharmaceutica N.V., priority 2006, dated 2013).

Experiments:
Escherichia coli = assay: Antimicrobial activity on a solid growth medium for Escherichia coli (Example 4); assay type: cell-based; settings: 24 hours at 30° C., plated 2×10^6 CFU/mL
Description: 100 mL of a silver suspension with an Ag concentration of 5 mM, in the form of nanosilver deposited on Lactobacillus fermentum biomass as obtained in example 1, was plated onto a solidified growth medium for culturing Escherichia coli (Luria Bertani Agar). As a control, 100 mL of a solution of 5 mM AgNO3 in sterile milliQ water with 0.1 N NaOH were plated on the same growth medium. This setting agreed with a total amount of 0.05 mg Ag per agar plate, or 11 mg Ag per m^2 of total surface area. This experiment was repeated with twofold the latter concentrations, i.e. with 0.11 mg Ag per agar plate or 22 mg Ag per m^2 of total surface area.
By plating these silver suspensions, a homogeneous layer of Ag(I)NO3, or nano-Ag respectively, was applied onto the solidified growth media.
After pre-treating the solidified growth medium in this way, 100 μL of a 2×10^6 CFU/mL Escherichia coli suspension in physiological solution (8.5 g NaCl/L in sterile water) was plated on the pre-treated agar plates. The plates were then incubated during 24 hours at 30° C. and colonies were counted. The count results are illustrated by FIG. 1. At nano-Ag concentrations of 11 mg Ag/m^2 and 22 mg Ag/m^2, no viable cells of E. coli could be detected on the treated solid growth medium (<detection limit (D.L.)=1×10^1 CFU/ml). […]

some bacteria = settings: cited from earlier work

Structure (SMILES) | viable cells of E. coli on treated solid growth medium (Escherichia coli; 11 mg Ag/m^2) | viable cells of E. coli on treated solid growth medium (Escherichia coli; 22 mg Ag/m^2) | concentration known to inhibit the growth of some bacteria (some bacteria)
O=[N+]([O-])[O-].[Ag+] [Ag(I)NO3, AgNO3] | 4×10^2 CFU/ml | 1×10^2 CFU/ml | 
OO [Hydrogen peroxide] |  |  | 25 mg/L
